In patent publication US12528791B2 (priority 2019, dated 2026):

Key:
THR-β/RXR-α = target: T1, THR-β/RXR-α (Homo sapiens, UniProt P10828); format: biochemical; settings: RXR heterodimer assay; compound activity normalized to T3 for THR-β/RXR-α and THR-α/RXR-α
T1 sequence (P10828 202-461 limits assumed): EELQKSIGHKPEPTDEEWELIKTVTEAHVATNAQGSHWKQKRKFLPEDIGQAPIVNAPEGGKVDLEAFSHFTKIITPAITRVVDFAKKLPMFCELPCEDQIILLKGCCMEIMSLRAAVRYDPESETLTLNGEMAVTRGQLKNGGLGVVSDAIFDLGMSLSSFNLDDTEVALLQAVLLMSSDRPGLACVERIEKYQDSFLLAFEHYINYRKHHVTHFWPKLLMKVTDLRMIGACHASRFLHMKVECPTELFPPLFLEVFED
T1 sequence (P19793 225-462 partner limits assumed): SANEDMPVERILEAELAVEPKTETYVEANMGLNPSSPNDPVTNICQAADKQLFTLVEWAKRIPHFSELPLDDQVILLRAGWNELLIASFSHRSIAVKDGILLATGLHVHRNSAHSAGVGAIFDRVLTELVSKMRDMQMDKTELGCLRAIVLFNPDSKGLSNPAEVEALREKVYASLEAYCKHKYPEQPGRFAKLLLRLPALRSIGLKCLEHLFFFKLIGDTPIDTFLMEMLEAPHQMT
T1 sequence (Q15596 679-703 partner limits assumed): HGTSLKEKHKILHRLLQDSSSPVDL

TR beta-LBD = target: T2, TR beta-LBD (Homo sapiens, UniProt P10828); format: biochemical; settings: TR-FRET assay; THR beta over THR alpha, derived from T3-selectivity normalized data
T2 sequence (P10828 217-461 limits assumed): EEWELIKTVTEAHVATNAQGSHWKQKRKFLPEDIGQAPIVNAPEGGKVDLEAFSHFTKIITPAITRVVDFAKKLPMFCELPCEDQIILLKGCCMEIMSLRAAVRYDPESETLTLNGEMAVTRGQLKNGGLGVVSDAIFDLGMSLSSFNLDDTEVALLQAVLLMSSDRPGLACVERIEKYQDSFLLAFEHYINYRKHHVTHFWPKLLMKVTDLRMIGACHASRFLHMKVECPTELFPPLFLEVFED

`Cn1cc2cc(Oc3c(Cl)cc(-n4nc(C#N)c(=O)[nH]c4=O)cc3Cl)ccc2n1` [Example 17, 2-(3,5-dichloro-4-((2-methyl-2H-indazol-5-yl)oxy)phenyl)-3,5-dioxo-2,3,4,5-tetrahydro-1,2,4-triazine-6-carbonitrile] showed a THRβ-Selectivity (THR-β/RXR-α) of 6.3 and a THRβ-Selectivity (TR beta-LBD) of 2.2.
`CC(C)n1cnc2ccc(Oc3c(Cl)cc(NC(=O)c4noc(=O)[nH]4)cc3Cl)cc21` [Example 20, N-(3,5-dichloro-4-((1-isopropyl-1H-benzo[d]imidazol-6-yl)oxy)phenyl)-5-oxo-4,5-dihydro-1,2,4-oxadiazole-3-carboxamide] gave a THRβ-Selectivity (THR-β/RXR-α) of 11.3 and a THRβ-Selectivity (TR beta-LBD) of 348.9.
For `N#Cc1nn(-c2cc(Cl)c(Oc3ccc4ncccc4c3)c(Cl)c2)c(=O)[nH]c1=O` [Example 13, 2-(3,5-dichloro-4-(quinolin-6-yloxy)phenyl)-3,5-dioxo-2,3,4,5-tetrahydro-1,2,4-triazine-6-carbonitrile], the THRβ-Selectivity (THR-β/RXR-α) was 5.5 and the THRβ-Selectivity (TR beta-LBD) was 3.7.
For `Cc1ccnc2ccc(Oc3c(Cl)cc(NC(=O)c4noc(=O)[nH]4)cc3Cl)cc12` [Example 25, N-(3,5-dichloro-4-((4-methylquinolin-6-yl)oxy)phenyl)-5-oxo-4,5-dihydro-1,2,4-oxadiazole-3-carboxamide], the THRβ-Selectivity (THR-β/RXR-α) was 5.7 and the THRβ-Selectivity (TR beta-LBD) was 1286.7.
In the case of `Cc1cnc2ccc(Oc3c(Cl)cc(-n4nc(C#N)c(=O)[nH]c4=O)cc3Cl)cc2c1` [Example 16, 2-(3,5-dichloro-4-((3-methylquinolin-6-yl)oxy)phenyl)-3,5-dioxo-2,3,4,5-tetrahydro-1,2,4-triazine-6-carbonitrile], the THRβ-Selectivity (THR-β/RXR-α) is reported as 7.1 and the THRβ-Selectivity (TR beta-LBD) is reported as 68.1.
In the case of `Cc1ccnc2ccc(Oc3c(Cl)cc(-n4nc(C#N)c(=O)[nH]c4=O)cc3Cl)cc12` [Example 15, 2-(3,5-dichloro-4-((4-methylquinolin-6-yl)oxy)phenyl)-3,5-dioxo-2,3,4,5-tetrahydro-1,2,4-triazine-6-carbonitrile], the THRβ-Selectivity (THR-β/RXR-α) is reported as 15.4 and the THRβ-Selectivity (TR beta-LBD) is reported as 15.9.
Work on `CCc1n[nH]c2ccc(Oc3c(Cl)cc(-c4n[nH]c(=O)[nH]c4=O)cc3Cl)cc12` [Example 2, 6-(3,5-dichloro-4-((3-ethyl-1H-indazol-5-yl)oxy)phenyl)-1,2,4-triazine-3,5(2H,4H)-dione] yielded a THRβ-Selectivity (THR-β/RXR-α) of 3.6 and a THRβ-Selectivity (TR beta-LBD) of 28.0.
Compound `COc1n[nH]c2ccc(Oc3c(Cl)cc(-n4nc(C#N)c(=O)[nH]c4=O)cc3Cl)cc12` [Example 9, 2-(3,5-dichloro-4-((3-methoxy-1H-indazol-5-yl)oxy)phenyl)-3,5-dioxo-2,3,4,5-tetrahydro-1,2,4-triazine-6-carbonitrile] has a THRβ-Selectivity (THR-β/RXR-α) of 10.3 and a THRβ-Selectivity (TR beta-LBD) of 8.0.
`Cc1n[nH]c2ncc(Oc3c(Cl)cc(NC(=O)c4noc(=O)[nH]4)cc3Cl)cc12` [Example 6, N-(3,5-dichloro-4-((3-methyl-1H-pyrazolo[3,4-b]pyridin-5-yl)oxy)phenyl)-5-oxo-4,5-dihydro-1,2,4-oxadiazole-3-carboxamide] showed a THRβ-Selectivity (THR-β/RXR-α) of 5.6 and a THRβ-Selectivity (TR beta-LBD) greater than 18.5.
